Results on nine compounds are retold here after US20240124524A1, “Agonist of Tacr2” (University of Copenhagen, priority 2019, published 2024).

Data set [1] deals with T1, mTacr2 (Mus musculus, UniProt P30549).
T1 construct: host or cells: HEK293
T1 sequence (P30549 1-384): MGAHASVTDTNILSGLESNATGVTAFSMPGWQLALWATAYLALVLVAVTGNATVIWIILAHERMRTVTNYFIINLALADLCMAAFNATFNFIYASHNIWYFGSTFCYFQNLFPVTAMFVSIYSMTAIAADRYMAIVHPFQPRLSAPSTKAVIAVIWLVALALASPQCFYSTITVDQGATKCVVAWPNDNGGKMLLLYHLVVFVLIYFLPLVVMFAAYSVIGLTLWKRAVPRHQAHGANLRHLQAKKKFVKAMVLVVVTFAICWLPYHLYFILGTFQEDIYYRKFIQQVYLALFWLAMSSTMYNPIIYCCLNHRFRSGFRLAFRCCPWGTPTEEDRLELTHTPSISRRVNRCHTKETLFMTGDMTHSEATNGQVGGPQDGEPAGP
The experiment in a line: IP3 assay in transfected HEK293 cells. The data set is classed as cell-based. How it is done:
(§1) HEK293 cells were transiently transfected with plasmid (pcDNA3.1, Genscript, NJ, USA) encoding human or mouse Tacr1-3 using Lipofectamine 2000 (Thermo Fisher, Denmark). After six hours of transfection, cells were loaded with 5 μCi myo-[3H]inositol (Perkin Elmer, Denmark) in full maintenance and cultured overnight. […] After treatment, cells were extracted with 10 mM formic acid and cell membranes were captured using poly-L-lysine coated SPA beads (Perkin Elmer, Denmark), and analyzed on Top Counter (Perkin Elmer, Denmark).
(§2) Data was analyzed using GraphPad Prism 7 (GraphPad, CA, USA),using 4 parametric logistic curve fitting. The data analysis included calculation of the top value, the bottom value, the hill slope as well as the log EC50.

The target of data set [2] is T1, mTacr2. The experiment in a line: IP3 assay with 0.2% or 2% BSA (BSA binding). It is filed as cell-based. The conditions noted are these: for EC50: printed as log EC50 with negative sign. The method, then: as §1, §2
A further data set addresses T2, mouse Tacr2 (Mus musculus, UniProt P30549).
T2 construct: host or cells: primary brown adipocytes
T2 sequence (P30549 1-384): T1 sequence (P30549 1-384)
The experiment in a line: IP3 assay in primary brown adipocytes transfected with Tacr2. It is filed as cell-based. The conditions noted are these: 24 hours NKA treatment; Tacr2 over-expressing primary brown adipocytes; FIG. 3a. The method, then: Primary brown pre-adipocytes were isolated from intrascapular brown fat pads by collagenase type 1 (Worthington, NJ, USA) digestion on horizontal shaking water bath at 37° C. for 50 minutes with vortexing every 10 minutes. Collagenase was diluted in KRB with free fatty acid free BSA (Sigma-Aldrich, Denmark) in a ratio of 1:10. The enzymatic reaction was stopped by addition of growth media, and cell suspension was pelleted, resuspended in growth media before straining through a 40 μm nylon mesh (VWR, Denmark) to avoid tissue clumps. Pre-adipocytes were expanded in DMEM (Gibco, Denmark) supplemented with 10% fetal bovine serum (Invitrogen, Denmark) and 1% penicillin and streptomycin (Lonza, Denmark) until confluency. […]
Primary brown adipocytes were loaded with 5 μCi myo-[3H]inositol (Perkin Elmer, Denmark) in full maintenance media at the day after electroporation, and incubated overnight. […] After treatment, cells were extracted with 10 mM formic acid and cell membranes were captured using poly-L-lysine coated SPA beads (Perkin Elmer, Denmark), and analyzed on Top Counter (Perkin Elmer, Denmark).
(§3) Oxygen consumption was measured using the Seahorse XF-96 Flux Analyzer (Seahorse Bioscience, Denmark). […] All readings were performed over a two minutes period and mixing was performed for three minutes. […]

The test system of a further data set is primary brown adipocytes. The experiment in a line: Oxygen consumption rate, Seahorse XF-96 Flux Analyzer. It is filed as cell-based. The conditions noted are these: 72 hours NKA treatment; primary brown adipocytes not transfected with Tacr2; FIG. 3b. How it is done:
Primary brown pre-adipocytes were isolated from intrascapular brown fat pads by collagenase type 1 (Worthington, NJ, USA) digestion on horizontal shaking water bath at 37° C. for 50 minutes with vortexing every 10 minutes. Collagenase was diluted in KRB with free fatty acid free BSA (Sigma-Aldrich, Denmark) in a ratio of 1:10. The enzymatic reaction was stopped by addition of growth media, and cell suspension was pelleted, resuspended in growth media before straining through a 40 μm nylon mesh (VWR, Denmark) to avoid tissue clumps. Pre-adipocytes were expanded in DMEM (Gibco, Denmark) supplemented with 10% fetal bovine serum (Invitrogen, Denmark) and 1% penicillin and streptomycin (Lonza, Denmark) until confluency. The day after reach of confluency, primary brown pre-adipocytes were differentiated using a cocktail consisting of insulin (0.5 mg/mL), rosiglitazone (1 mM), dexamethasone (100 μM), IBMX (50 mM) and T3 (1 μM) for two days, thereafter cells were maintained in growth media containing insulin and T3 throughout the experimental period. Maintenance media was changed every second day. Cells were grown at 37° C. with 10% CO2.
as §3

In data set [3] the test system is diet induced obese (DIO) mice. In words: Neurokinin A treatment of diet induced obese mice. It is filed as in vivo, mice (male C57Bl/6). How it is done: (§4) Oxygen consumption was measured every 5 minutes using the PhenoMaster. Data is representative of all days and show means±SEM of n=6. (b) Weight was measured every day throughout the experimental period. […] (c) Insulin tolerance test was performed in 3h fasted mice the day after treatment, and mice received 1 UI per kg lean body mass insulin intraperitoneal. […] (d) The three major adipose tissues were harvested weighed upon termination of experiment.
All animal experiments were performed according to Danish animal legislation, with ad libitum access to food and water and 12 hour light-dark cycle. Male C57Bl/6 mice were purchased from Janvier (Denmark) at four weeks of age and acclimatized for one week prior to experimentation. For high fat diet studies, male C57Bl/6 mice were housed at room temperature and fed a 60% high fat diet (Research diets, D12492, Denmark) for 18 weeks. After being fed this diet, the mice were highly obese, typically having a body weight in the range of 42 to 45 g. These mice may also be referred to as diet induced obese (DIO) mice. Mice were randomized according to their weight and body composition measured by MRI scan (EchoMRI, TX, USA) before single-housing for at least one week prior treatment. Oxygen consumption and […] (RER) were measured using PhenoMaster (TSE-Systems, Germany). Food consumption was manually assessed every second day.
For treatment, NKA was diluted in Gelofusine® (B. Braun, DK) prior to subcutaneous injection. Mice were treated twice daily for 9 days.

Data set [4] concerns diet induced obese (DIO) mice. In words: Insulin tolerance test after Neurokinin A treatment. The conditions noted are these: vs control mice. The data set is classed as in vivo, mice (male C57Bl/6). The method, then: as §4
Mice were fasted for 3 hours prior to intra peritoneal insulin tolerance test (IPITT). Insulin (Actrapid, Novo Nordisk, DK) was dosed at 1 IU per kg lean body mass measured prior to treatment. Blood glucose was determined using glucometer from Roche. Lower blood glucose levels indicate greater insulin sensitivity.

The subject of data set [5] is Tacr2. The following applies: Sp Cp; cited from earlier work.
In another data set the test system is human brown adipose. The following applies: cited from earlier work.
Data set [6] concerns the target T3, Tacr2 (Rattus norvegicus, UniProt P16610).
T3 sequence (P16610 1-390): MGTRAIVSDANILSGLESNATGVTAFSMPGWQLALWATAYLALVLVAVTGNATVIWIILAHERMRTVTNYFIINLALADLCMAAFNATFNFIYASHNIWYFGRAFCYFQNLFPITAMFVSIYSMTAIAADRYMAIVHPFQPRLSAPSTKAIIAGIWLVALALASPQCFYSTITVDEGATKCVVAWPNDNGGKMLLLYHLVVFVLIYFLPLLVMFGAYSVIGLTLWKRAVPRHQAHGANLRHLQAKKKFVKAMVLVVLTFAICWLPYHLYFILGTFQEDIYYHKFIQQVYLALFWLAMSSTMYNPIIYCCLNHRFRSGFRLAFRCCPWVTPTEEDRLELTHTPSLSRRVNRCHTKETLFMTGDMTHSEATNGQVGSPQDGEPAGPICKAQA
The following applies: Sp Rn; cited from earlier work.

Data set [7] deals with T4, Tacr2 (Homo sapiens, UniProt P21452).
T4 sequence (P21452 1-398): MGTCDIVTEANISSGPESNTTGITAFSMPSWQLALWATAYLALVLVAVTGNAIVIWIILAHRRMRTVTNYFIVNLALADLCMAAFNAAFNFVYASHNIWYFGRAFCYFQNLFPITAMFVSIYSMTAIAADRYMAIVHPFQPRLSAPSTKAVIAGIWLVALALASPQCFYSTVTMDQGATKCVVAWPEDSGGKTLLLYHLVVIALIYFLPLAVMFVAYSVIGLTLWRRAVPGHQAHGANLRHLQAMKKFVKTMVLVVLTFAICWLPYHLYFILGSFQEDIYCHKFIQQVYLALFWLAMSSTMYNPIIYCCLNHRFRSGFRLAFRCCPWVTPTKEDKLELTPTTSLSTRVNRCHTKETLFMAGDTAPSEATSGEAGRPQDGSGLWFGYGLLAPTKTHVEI
The conditions noted are these: Sp Hs; cited from earlier work.

For data set [8], the target named is T3, Tacr2. The conditions noted are these: Sp Rn; cited from earlier work. The source holds these as a separate data set.

Like-named read-outs stand apart in the source and are kept apart here.

As a reminder, the EC50 is the concentration giving half of the maximal effect.

On mTacr2 [1], `CSCC[C@H](NC(=O)[C@H](CC(C)C)NC(=O)CNC(=O)[C@@H](NC(=O)[C@H](Cc1ccccc1)NC(=O)[C@H](CO)NC(=O)[C@H](CC(=O)O)NC(=O)[C@@H](NC(=O)[C@H](CCCCN)NC(=O)[C@@H](N)Cc1cnc[nH]1)[C@@H](C)O)C(C)C)C(N)=O` [NKA, Neurokinin A] came in with an EC50 of 8.09 nM. This compound gave a concentration giving a half-maximal response (EC50) on mTacr2 [2] (LogEC50, mTacr2, 0.2% BSA) of 3.54 nM. The concentration for a half-maximal effect (EC50) on mTacr2 [2] (LogEC50, mTacr2, 2% BSA) is 12.3 nM. In addition, the BSA binding affinity result on mTacr2 [2] (from Tacr2 activation at 0.2% vs 2% BSA) was “low BSA binding affinity”. At mTacr2 [2] (mTacr2, 0.2% BSA), the Hill-Slope was 1.082 and the Top turned out to be 1788. Further, at mTacr2 [2] (mTacr2, 2% BSA), the Bottom is on record as 111.3, the Hill-Slope amounted to 0.8378 and the Top was found to be 1719. The IP3 levels result at mouse Tacr2 is reported as “increases IP3 levels”. Also, the “oxygen consumption rate (OCR)” value with primary brown adipocytes is “increases oxygen consumption rate (OCR)”. In data set [3] (1 mg/kg NKA s.c. twice daily for 9 days), the metabolic parameters result is “improved metabolic parameters”. Moreover, the “calorie burning (oxygen consumption)” value in data set [3] (1 mg/kg NKA s.c. twice daily for 9 days, FIG. 4a) is listed as “increased calorie burning”. For the same compound, the body weight entry in data set [3] (1 mg/kg NKA s.c. twice daily for 9 days, FIG. 4b) was “significant reduction in body weight”. Moreover, the “desensitization to NKA” value in data set [3] (9 consecutive days of treatment, FIG. 4a) was “not accompanied by desensitization to NKA”. Also, the adipose tissue weight result in data set [3] (tissues harvested upon termination, FIG. 4d) is “reduction of white adipose tissue and not brown fat”. In addition, the “blood glucose level after insulin treatment (ITT)” value in [4] (3 h fasted, 1 IU insulin per kg lean body mass i.p., day after treatment, FIG. 4c) is “significant lower blood glucose level after insulin treatment”. Further, in [4], the “insulin sensitivity (ITT)” value was “higher insulin sensitivity” and the “return of blood glucose to basal levels after Cmin (ITT)” value is “return to basal levels at a slower rate”.

As to “neuropeptide K (DADSSIEKQVALLKALYGHGQISHKRHKTDSFVGLM; Neuropeptide K; UniProt P20366 72-107, looked up) [natural agonist of Tacr2 (Human, Rat)]”, the Affinity in the data set on Tacr2 [5] was 8.8 pEC50.

Take `Nc1nc(CC(=O)Nc2ccc(CCNC[C@H](O)c3ccccc3)cc2)cs1` [Mirabegron]: in the data set with human brown adipose (proof-of-concept studies), the “activation of human brown adipose” value is listed as “activate human brown adipose”. In addition, the “blood pressure and heart rate” value in the data set with human brown adipose (side effects) was “elevated blood pressure and heart rate”.

Regarding “Neurokinin A (3-10) [GR64349, Neurokinin A (3-10) [Lys3, Gly8-(R)-γ-Lactam-Leu9]]”, the Affinity at Tacr2 [6] is reported as 8.4 pEC50.

For `CSCC[C@H](NC(=O)[C@H](CC(C)C)NC(=O)CNC(=O)[C@@H](NC(=O)[C@H](Cc1ccccc1)NC(=O)[C@H](Cc1ccccc1)NC(=O)[C@H](CC(=O)O)NC(=O)[C@H](Cc1c[nH]cn1)NC(=O)[C@H](CCSC)NC(=O)[C@@H](N)CC(=O)O)C(C)C)C(N)=O` [NKB, neurokinin B], the Affinity on Tacr2 [7] is 5.0-7.7 pKi.

“[Lys5,Me-Leu9, Nle10]NKA-(4-10) [[Lys5,Me-Leu9,Nle10]NKA-(4-10), DKFVGXJ, X = Me-Leu; J = Nle]”: the Affinity with Tacr2 [8] is on record as 8.8-9.4 pIC50.

In the case of [βAla8]neurokinin A-(4-10), the Affinity at Tacr2 [7] is 6.0 pKd.

Consider neuropeptide γ, for which the Affinity in the data set with Tacr2 [5] is reported as 9.5 pEC50.

Take “hemokinin 1 (RSRTRQFYGLM; Hemokinin; UniProt Q99N14 56-66, looked up) [mammalian tachykinin (Mouse)]”: the Affinity in the data set with Tacr2 [7] was 6.3 pKi.
